Data published in patent publication US7183309B2, “Indole derivatives useful as progesterone receptor modulators” (Janssen Pharmaceutica N.V., priority 2004, dated 2007).

Test system: T47D human breast cancer cells
Experiment: In Vitro Testing-T47 D Assay (alkaline phosphatase assay)
Type: cell-based
Settings: alkaline phosphatase luminescence readout after 24 h
Experimental: In Vitro Testing-T47 D Assay
T47D human breast cancer cells are grown in RPMI medium without phenol red (Invitrogen) containing 10% (v/v) heat-inactivated fetal bovine serum (FBS; Hyclone), 1% (v/v) penicillin-streptomycin (Invitrogen), 1% (w/v) glutamine (Invitrogen), and […] (Sigma). Incubation conditions are 37° C. in a humidified 5% (v/v) carbon dioxide environment. For assay, the cells are plated in 96-well tissue culture plates at 10,000 cells per well in assay medium [RPMI medium without phenol red (Invitrogen) containing 5% (v/v) charcoal-treated FBS (Hyclone) and 1% (v/v) penicillin-streptomycin (Invitrogen)]. Two days later, the medium is decanted and the compounds are added in a final concentration of 0.1% (v/v) dimethyl sulfoxide in fresh assay medium. Twenty-four hours later, an alkaline phosphatase assay is performed using a SEAP kit (BD Biosciences Clontech, Palo Alto, Calif.). Briefly, the medium is decanted and the cells are fixed for 30 minutes at room temperature with 5% (v/v) formalin (Sigma). The cells are washed once with room temperature Hank's buffered saline solution (Invitrogen). Equal volumes (0.05 mL) of 1× Dilution Buffer, Assay Buffer and 1:20 substrate/enhancer mixture are added. After 1-hour incubation at room temperature in the dark, the lysate is transferred to a white 96-well plate (Dynex) and luminescence is read using a LuminoSkan Ascent (Thermo Electron, Woburn, Mass.).

SMILES	inhibition at 3 µM (Homo sapiens, T47D, 24 h)	IC50 (Homo sapiens, T47D, 24 h)	also measured
Fc1cc2c(Sc3ccccc3)c(-c3ccccc3)[nH]c2cc1Cl [Example 5, 6-Chloro-5-fluoro-2-phenyl-3-phenylsulfanyl-1H-indole]	103%	1760 nM	–
CC(C)(O)c1[nH]c2cc(C(F)(F)F)c(C#N)cc2c1Sc1cccc([N+](=O)[O-])c1 [Example 4, 2-(1-Hydroxy-1-methyl-ethyl)-3-(3-nitro-phenylsulfanyl)-6-trifluoromethyl-1H-indole-5-carbonitrile]	–	–	inhibition at 3 µM (Homo sapiens): 69%; IC50 (Homo sapiens): 2190 nM
O=[N+]([O-])c1ccc(Sc2c(-c3ccccc3)[nH]c3cc(Cl)c(F)cc23)cc1 [Example 3, 6-Chloro-5-fluoro-3-(4-nitro-phenylsulfanyl)-2-phenyl-1H-indole]	88%	1400 nM	–
CC(C)(O)c1[nH]c2cc(C(F)(F)F)c([N+](=O)[O-])cc2c1Sc1ccccc1 [Example 1, 2-(5-Nitro-3-phenylsulfanyl-6-trifluoromethyl-1H-indol-2-yl)-propan-2-ol]	–	–	inhibition at 3 µM (Homo sapiens): 99%; IC50 (Homo sapiens): 62 nM
O=[N+]([O-])c1cccc(S(=O)(=O)c2c(-c3ccccc3)[nH]c3cc(Cl)c(F)cc23)c1 [Example 7, 6-Chloro-5-fluoro-3-(3-nitro-benzenesulfonyl)-2-phenyl-1H-indole]	–	3620 nM	inh. @ 3 uM: 55%
O=[N+]([O-])c1cccc(S(=O)(=O)c2c(-c3ccccc3)[nH]c3cc(Cl)c(F)cc23)c1 [Example 8, 6-Chloro-5-fluoro-3-(3-nitro-benzenesulfonyl)-2-phenyl-1H-indole]	–	–	inh. @ 3 uM: 82%; IC50: 3180 nM
O=[N+]([O-])c1cccc(Sc2c(-c3ccccc3)[nH]c3cc(Cl)c(F)cc23)c1 [Example 6, 6-Chloro-5-fluoro-3-(3-nitro-phenylsulfanyl)-2-phenyl-1H-indole]	99%	1900 nM	–
C=C(C)c1[nH]c2cc(C(F)(F)F)c([N+](=O)[O-])cc2c1Sc1ccccc1 [Example 2, 2-Isopropenyl-5-nitro-3-phenylsulfanyl-6-trifluoromethyl-1H-indole]	–	> 10000 nM	–
